The values that follow come from US11154513B2, “Semifluorinated compounds” (NOVALIQ GMBH, priority 2015, dated 2021).

Like-named read-outs stand apart in the source and are kept apart here.

Data set [1] in a line: Differential Scanning Calorimetry of mixtures. On the technique in general: Differential scanning calorimetry records heat flow against a reference as temperature is scanned.
Method: Differential Scanning Calorimetry (DSC 1, Mettler Toledo, Greifensee, Switzerland) is used to characterize structure and phase behavior of mixtures of CF3(CF2)5—CH(CH3)—(CH2)5—CH3 and CF3(CF2)5(CH2)7CH3. DSC was employed to obtain data on transitions by temperature rising scans with heating rate of 1° C./min. Sealed standard aluminum crucibles (40 μl, Mettler Toledo) were used.
Data set [2] is described as follows: Refractive index of the mixtures. Conditions: mixture with the 1-perfluoroalkylalkane; FIG. 2, FIG. 3. Format: physicochemical. Here is the method:
In a particularly preferred embodiment, the refractive index of the liquid solution is in the range of from about 1.30 to about 1.35 at 20° C., as determined by refractometer.
The refractive index of the mixtures was also determined. For topically applied ophthalmic compositions, the refractive index of the composition should preferably be similar, or adapted to that of the eye and lens, for instance as close to that of physiological tear fluid as possible. If the refractive index of a composition is not similar, when applied to the surface of the eye, a patient may experience blurring or impaired vision. It is observed, that the amount of the compound CF3(CF2)5—CH(CH3)—(CH2)5—CH3 or has an effect on refractive index.

Data set [3] can be described thus: Evaporation time of 10 μL droplet on glass surface. The data set is classed as physicochemical. Conditions: for effect of increased amount of the compound on evaporation time of the mixture: FIG. 1; for Evaporation time: 10 μL droplet, glass surface, room temperature; for Evaporation time / Relative Evaporation Time: F4H5 / CF3—(CF2)3—CH(CH3)—(CH2)2—CH3 mixtures; for Relative Evaporation Time: relative to Sample 1. Here is the method: The evaporation time of mixtures of the semifluorinated alkane CF3(CF2)3(CH2)4CH3(F4H5) and CF3—(CF2)3—CH(CH3)—(CH2)2—CH3 was evaluated. A droplet of 10 μL volume of each mixture was placed on a glass surface at room temperature. Time until evaporation was recorded by video-monitoring.
The evaporation time of mixtures of the semifluorinated alkane CF3(CF2)5(CH2)7CH3(F6H8) and CF3(CF2)5—CH(CH3)—(CH2)5—CH3 was evaluated analogously.

A further data set concerns Rabbit corneas. Here is the method: Anim., 2008 (36) p 25-32; and N. Schrage et al, Graefes Arch Clin Exp Ophthalmol 2012 (250), 1330-1340).
Method. Rabbit corneas were obtained and placed in an artificial anterior ocular chamber which was gently filled with serum-free minimal essential medium (Eagle's MEM) containing Earle's salts and HEPES buffer for nutrition. The medium was constantly replenished by a micropump to imitate the physiological condition of the eye. The culture chambers were held at 32° C. under normal air without supplementary CO2 and >95% relative humidity. Five corneas per test substance (n=5) were used except for the positive control with which two corneas (n=2) were tested.
After 12 h of stabilization in the culture chamber, the corneas were evaluated by microscopy and corneas with intact epithelium and without opacities were selected. Four small abrasions (2.3-4.3 mm^2) were applied to the surface of the selected corneas with a cornea drill. All defects were monitored by fluorescein sodium staining (0.17% aq. solution) and microscopy.
The test substances were administered one hour after induction of the corneal erosion and were applied six times daily onto the apex of the corneas (30-50 μL every four hours). A soft-tipped cannula, with continuous suction was placed on the lowest part of the corneoscleral region within the culturing chamber to remove any excess fluid. Experiments were terminated after 3 days of application. Biomicroscopic images of the corneas were taken daily to document the corneal healing process using a phase-contrast microscope integrated camera (KY-F1030U, JVC, (Bad Vilbel, Del.) mounted on a Z16 APO Microscope (Wetzlar, Del.)). All defects were monitored by fluorescein sodium stains (0.17% aq. solution) with yellow green fluorescence indicating the areas of epithelial defects. Erosion sizes were determined using a software tool of the microscope (DISKUS). At the end of the 3 days, the experiment was terminated and all corneas were fixed in 3.7% formaldehyde and stained with a hematoxylin-eosin dye for microscopic evaluation. To monitor the metabolic activity of the cornea, glucose and lactate concentrations were photometrically quantified in the outflow medium from the artificial anterior chambers.

The mark [4] stands for this setting: DSC heating rate 1° C./min, mixture with CF3(CF2)5(CH2)7CH3.

For `CCCCCCC(C)C(F)(F)C(F)(F)C(F)(F)C(F)(F)C(F)(F)C(F)(F)F` (stereo not shown) [CF3—(CF2)5—CH(CH3)—(CH2)5—CH3, 2-Perfluorohexyl-octane], in data set [1] (presence in a mixture of F6H8), the “effect on melting enthalpy” value is listed as “decreased” and the “effect on melting temperature” value was “significant reduction”. Also, the “effect of increased content on refractive index of the mixture” value in data set [2] was “increasing refractive index value”. Also, in data set [3], the “effect of increased amount of the compound on evaporation time of the mixture” value was “significantly decreases the evaporation time”.
Turning to benzalkonium chloride [0.01% BAC], the “course of induced epithelial lesions” value in the data set with Rabbit corneas is “progressive increase of the induced epithelial lesions”. For the same molecule, the “Corneal Erosion Size, Mean” value in the data set on Rabbit corneas (Day 0) worked out at 11.57 mm^2; in the data set on Rabbit corneas (Day 1, applied six times daily 30-50 μL), 5.91 mm^2; with Rabbit corneas (Day 2, applied six times daily 30-50 μL), 8.74 mm^2; in the data set on Rabbit corneas (Day 3, applied six times daily 30-50 μL) it was 17.46 mm^2.
Consider `CCCC(C)C(F)(F)C(F)(F)C(F)(F)C(F)(F)F` (stereo not shown) [Sample 3, CF3—(CF2)3—CH(CH3)—(CH2)2—CH3], for which, in data set [3], the Evaporation time turned out to be 322 s and the “Relative Evaporation Time” value is 1.064.
For `CCCC(C)C(F)(F)C(F)(F)C(F)(F)C(F)(F)F` (stereo not shown) [CF3—(CF2)3—CH(CH3)—(CH2)2—CH3, 2-Perfluorobutyl-pentane], in data set [2], the “effect of increased content on refractive index of the mixture” value is “increasing refractive index value”. Moreover, in data set [3], the “effect of increased amount of the compound on evaporation time of the mixture” value was “increase the evaporation time”.
“CF3(CF2)5(CH2)7CH3 [0 wt % CF3—(CF2)5—CH(CH3)—(CH2)5—CH3]”: in data set [1] (setting [4]), the “Low temperature transition Endset” value is −38.32 °C, the “Low temperature transition Onset” value was −45.47 °C, the “Low temperature transition Peak” value was −40.37 °C and the “Low temperature transition ΔH” value was -0.69 J/g.
In the case of `CCCCCC(F)(F)C(F)(F)C(F)(F)C(F)(F)F` [Sample 1, CF3(CF2)3(CH2)4CH3], in data set [3], the Evaporation time is 304 s and the “Relative Evaporation Time” value is 1.00.
